Results on two substances are retold here after US20080139407A1, “Segment synthesis” (PEPSCAN SYSTEMS B. V., priority 2000, published 2008).

The subject of data set [1] is biotinylated DNA (3′-TATTCTCCGGACGAGTACCGTGAAGGGTC-Biotin-5′). The data set is described as follows: Binding of biotinylated DNA by the construct of two PNAs, detected with streptavidin-horse radish peroxidase and ABTS. Particulars: miniwell setup, polypropylene surface. The text has this:
FIG. 10. A) Schematic presentation of a DNA/RNA scan. The constructs are scanned with a labeled protein, for example a regulatory protein, or another DNA or PNA strand (top), or alternatively overlapping peptides are scanned with biotynilated RNA, DNA or PNA (bottom). The oligonucleotide sequences are shown in SEQ ID NOS 661-666, respectively, in order of appearance. B) Working example with biotinylated DNA on construct of two PNA's.
Chemistry in short: Detection of the binding of Biotinylated DNA by the construct of two PNAs. In miniwell setup the polypropylene (PP) surface of the miniwells was functionalized with carboxyl groups using gamma irradiation (12 kGy) in the presence of CuSO4 and 6% acrylic acid. Subsequently the PP surface was amino group functionalized (using BocHMDA/DCC/HOBt with subsequent removal of the Boc group with TFA). Next the amino groups were converted in thiol groups by coupling of Fmoc-Cys-(Trt) using DCC/HOBt, removal of the Fmoc group, acetylation of the amino group followed by removal of the Trt by TFA/triethyl silan. To this PP surface functionalized with thiol groups a PNA (PNA1) was coupled which contains N-terminal a bromoacetyl group and C-terminal an extra Cys-S-tBu (the Bromo group of the PNA reacts to the thiol group of the surface). After removal of the S-tBu (using NaBH4) of the Cys-S-tBu, the coupled PNA has a thiol group on C-terminal end. […]

The subject of a further data set is monoclonal antibody-03. Description: Control test of peptide-covered surface with monoclonal antibody-03, indirect fluorescence detection. The format is binding. As to conditions: peptide present on the whole square.
The subject of the next data set is monoclonal antibody-01. The data set is described as follows: Spotted peptide constructs tested against monoclonal antibody-01, indirect fluorescence detection. Format: binding. As to conditions: peptides spotted in 1 μl to 0.25 nl. How it is done: FIG. 2. A) Microturisation of spots of peptide constructs. Constructs were tested against the same monoclonal antibody-01 as was tested in FIG. 1. Binding was made visible using indirect fluorescence detection. Peptide 1, sequence with an N-terminal bromoacetamide, was synthesised on the complete surface. Peptide construct 6-1 is the same as construct 125 in FIG. 1. Peptides 2 up to 8, containing a cysteine residue, were spotted in different volumes ranging from 1 μl to 0.25 nl using piezo drop-on-demand technology. […] The identified epitope is shown in black. The disclosed peptide is shown in SEQ ID NO: 7.
The bromoacetamide peptide was covalently bound to a functionalised polypropylene/polyacrylic acid solid support in 3 μl wells as described above. The cysteine-containing sequences were synthesised on and cleaved from functionalised polyethylene pins as described above. […] On a surface of a solid support peptides are synthesized with a bromoacetamide group at the N-terminus as described above. […]

*: point of attachment. BrAc = O=C(CBr)*

As to “GAGGCCTGCTspacer ATGGCACTTC (PNA, spacer, thioether coupling to polypropylene surface, chemistry not fully specified) [PNA construct, construct of PNA1 and PNA2 coupled via thioether on polypropylene surface]”, the “binding of biotinylated DNA to the PNA construct” value in data set [1] is “binding”.
Regarding ADSLYTYPVATQ (BrAc-ADSLYTYPVATQ-NH2), the “recognition by monoclonal antibody-03” value in the data set on monoclonal antibody-03 is reported as “recognizes”. In addition, the “recognition / binding by monoclonal antibody-01” value in the data set on monoclonal antibody-01 was “does not recognize”.
